Measurements published in PubChem BioAssay AID602211 (Sanford-Burnham Center for Chemical Genomics, 2012).
Activity calls are given as the source filed them.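 The calls were made as follows: active = mean IC50 at or below 10 µM; inactive = the rest.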

Tested on: H9c2 cardiomyocytes, H2O2 protection, ATPLite viability, 2 h
Test: H2O2-induced H9c2 cell death suppression – ATPLite luminescence, set 2, dose response (AID 602211);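 also: potency is for protection so actives keep ATP signal up against peroxide killing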

Row | Compound | IC50
1 | CC(C)(C)OC(=O)C[C@@H]1C/C=C\C[C@@H](CC(=O)N[C@@H](CO)Cc2ccccc2)C(=O)NC[C@@H](c2ccccc2)OC1=O | 12.9 µM (inactive)
2 | COc1cccc(-c2cnc3c(NC(C)=O)cc(-c4cccc(NS(C)(=O)=O)c4)cn23)c1 | 7.84 µM
3 | CC(=O)c1ccc(-c2cnc3c(NC=O)cc(-c4cccc(C(=O)N(C)C)c4)cn23)cc1 | 18.9 µM (inactive)
4 | COc1cc(/C=N/NC(=O)c2ccncc2)ccc1OC(=O)c1ccccc1Cl | 5.67 µM
5 | COc1ccc(N(CC(=O)N/N=C/c2cccs2)S(=O)(=O)c2ccc(OC)c(OC)c2)cc1 | 10.3 µM (inactive)
6 | O=C(COC(=O)c1c2c(nc3ccccc13)/C(=C/c1cccc([N+](=O)[O-])c1)CCC2)NC1CCS(=O)(=O)C1 (stereo not given) | 4.47 µM
7 | CCN(CC)C(=O)c1ccc(-c2nnc(Nc3ccc(O)cc3)c3ccccc23)cc1 | 17.6 µM (inactive)
8 | Cc1ccccc1N(C(=O)c1snc(C(N)=O)c1N)C(C(=O)NCc1ccccc1)c1ccc(O)cc1 (stereo not given) | 6.3 µM
9 | C[C@H](CO)N1C[C@H](C)[C@@H](CN(C)S(=O)(=O)c2ccccc2)Oc2ccc(NC(=O)Nc3ccccc3)cc2C1=O | 16.6 µM (inactive)
10 | CC(=O)N1CCN(c2ccccc2NC(=O)c2ccc(-c3cccc([N+](=O)[O-])c3)o2)CC1 | 23.7 µM (inactive)
11 | NC(=O)c1nsc(C(=O)N(c2ccccc2F)C(C(=O)NCc2ccc(F)cc2)c2ccc(O)cc2)c1N (stereo not given) | 0.94 µM
12 | CCOc1ccc(C(C(=O)NC2CCCC2)N(C(=O)c2snc(C(N)=O)c2N)c2cccc(O)c2)cc1 (stereo not given) | 3.28 µM
13 | CCOC(=O)c1cccc(Nc2nc(-c3cccnc3)nc3ccccc23)c1 | > 79 µM (inactive)
14 | CCC(=O)Nc1cccc(-c2nnc(-c3cccc(NC(=O)CC)c3)o2)c1 | 4.1 µM
15 | CCOC(=O)c1ccc(NC(=O)c2nc[nH]c2C(=O)NCCCCCNC(=O)OC(C)(C)C)cc1 | 4.43 µM
16 | COc1cc(/C=C/c2nc3ccccc3c(=O)n2-c2ccccc2O)ccc1O | 9.9 µM
17 | Cc1nn(C)cc1C(C(=O)NC1CCCCC1)N(C(=O)Cc1cccs1)c1ccc(Cl)cc1 (stereo not given) | 8.18 µM
18 | COc1ccc(-c2cc(-c3nnc(COC(=O)C4CC4)o3)c3ccccc3n2)cc1OC | 4.39 µM
19 | O=c1[nH]c(CSc2nnc(-c3cccnc3)n2C2CCCCC2)nc2ccccc12 | 48.2 µM (inactive)
20 | COc1ccccc1-c1cc(NC(C)=O)c2ncc(-c3cccc(C(C)=O)c3)n2c1 | 11.1 µM (inactive)
21 | CNC(=O)c1cccc(NC(=O)c2cc(-c3ccccc3)nc3c2cnn3C(C)C)c1 | > 79 µM (inactive)
22 | CC(=O)Nc1cc(-c2cccc(NS(C)(=O)=O)c2)cn2c(-c3cccc(C(C)=O)c3)cnc12 | 15 µM (inactive)

Row | Compound | IC50
23 | CCOC(=O)c1cnc(Nc2nc3ccccc3o2)nc1CSc1nnc(C)s1 | 12.8 µM (inactive)
24 | COCc1c(C(=O)Nc2ccc3nc(N4CCOCC4)sc3c2)oc2ccccc12 | > 79 µM (inactive)
25 | Cc1ccc2[nH]c(=O)c(CN(Cc3ccco3)S(=O)(=O)c3c(C)ccc4nsnc34)cc2c1 | 1.32 µM
26 | CCCCCCn1c(C)nc2c(c1=O)c1nc3ccccc3nc1n2/N=C/c1ccco1 | 4.85 µM
27 | COc1cc(/C=N/NC(=O)NC23CC4CC(CC(C4)C2)C3)ccc1OCC(N)=O | 2.84 µM
28 | CC(C)OCCCNC(=O)CCC(=O)NNc1nc2ccccc2c2nc(-c3ccccc3)nn12 | 19.8 µM (inactive)
29 | CN(C)C(=O)/C=C\c1cn(-c2ccccc2)nc1-c1ccc2c(c1)OCCO2 | > 79 µM (inactive)
30 | O=C(NCC(=O)N(Cc1ccccc1)C(C(=O)NC1CCCCC1)c1ccco1)c1ccco1 (stereo not given) | 38.7 µM (inactive)
31 | C[C@@H](NC(=O)c1nc[nH]c1C(=O)NCC(=O)OCc1ccccc1)c1ccccc1 | 51.6 µM (inactive)
32 | COc1ccc(CC(=O)N(Cc2ccccc2)c2ccccc2)cc1S(=O)(=O)N1CCOCC1 | 2.24 µM
33 | Cc1nc(SCC(=O)N2CCN(c3ccccc3)CC2)c2oc3ccccc3c2n1 | 3.43 µM
34 | COc1cc2c(cc1OC)CN(c1nc(-c3cccnc3)nc3ccccc13)CC2 | 2.93 µM
35 | COc1ccc(CCNC(=O)c2cc3c(C)nccc3[nH]c2=O)cc1OC | 7.47 µM
36 | COc1ccc(-c2cc(NC(C)=O)c3ncc(-c4cccc(C(C)=O)c4)n3c2)cc1OC | 7.18 µM
37 | COc1cc(/C=N/NC(=O)c2cccnc2)ccc1OCC(=O)Nc1ccccc1Cl | 1.78 µM
38 | C[C@H](CO)N1C[C@H](C)[C@@H](CN(C)S(=O)(=O)c2cccs2)Oc2ccc(NC(=O)Nc3ccccc3)cc2C1=O | 16 µM (inactive)
39 | CCOC(=O)C1CCN(c2cc3c(cc2NC(=O)c2ccc(OC)c(OC)c2)n(C)c(=O)n3C)CC1 | 1.22 µM
40 | COc1cccc(CN2CCN(C(=O)c3cc(-c4cccnc4)nc4ccc(C)cc34)CC2)c1 | 22.9 µM (inactive)
41 | NC(=O)c1cccc(-c2coc3c(C(=O)NCCc4ccccc4)cccc23)c1 | > 79 µM (inactive)
42 | O=C(Nc1cccc(NC(=O)c2ccc([N+](=O)[O-])o2)c1)c1ccco1 | 1.58 µM
43 | O=C(N/N=C/c1ccc(-c2cccc([N+](=O)[O-])c2)o1)c1ccc([N+](=O)[O-])cc1 | 7 µM
44 | COC(=O)c1ccc2c(=O)[nH]c(COC(=O)c3[nH]c(C)c(C(C)=O)c3C)nc2c1 | 5.29 µM

Row | Compound | IC50
45 | COc1ccc(NC(=O)c2cc(-c3ccc(OC)c(OC)c3)nc3ccccc23)c(OC)c1 | 8.09 µM
46 | COc1ccc2o/c(=N/NC(=O)c3cccs3)c(C(N)=O)cc2c1 | 2.29 µM
47 | C=C1C(C)C2C(Cc3ccccc3)NC(=O)C23OC(=O)/C=C/C(O)CCCC(C)C/C=C/C3C1O (stereo not given) | 0.611 µM
48 | COc1ccc(C(C(=O)NC2CCCC2)N(C(=O)c2snc(C(N)=O)c2N)c2cccc(O)c2)cc1 (stereo not given) | 12.7 µM (inactive)
49 | CC12C=CC(=O)CC1CCC1C2CCC2(C)C(O)C(O)CC12 (stereo not given) | 2.62 µM
50 | O=c1c2ccccc2nc(CSc2ncnc3nc[nH]c23)n1-c1ccc(Cl)c(Cl)c1 | 4.13 µM
51 | Cc1nn(-c2ccccc2)c(C)c1/C=N/NC(=O)c1cc(C(C)(C)C)[nH]n1 | 26.5 µM (inactive)
52 | COCCn1c(=NC(=O)c2nc3ccccc3s2)sc2cc(S(C)(=O)=O)ccc21 | 1.4 µM
53 | COc1ccc(-n2c(/C=C/c3ccc(O)c(OC)c3)nc3ccccc3c2=O)cc1 | 1.58 µM
54 | CCOCCn1ccc2c(OCC(=O)Nc3cc(OC)ccc3OC)cccc2c1=O | 5.23 µM
55 | Cc1cccc(NC(=O)c2oc3ccc(S(=O)(=O)N4CCOCC4)cc3c2C)c1C | 3.23 µM
56 | COc1ccc(C(=O)COC(=O)C(CCCCN2C(=O)C3C4C=CC(C4)C3C2=O)N2C(=O)C3C4C=CC(C4)C3C2=O)cc1 (stereo not given) | 4.84 µM
57 | NC(=O)COc1ccc2oc(=O)cc(-c3cc4ccccc4o3)c2c1 | 9.93 µM
58 | COc1cc(-c2cnc3c(NC=O)cc(-c4ccsc4)cn23)cc(OC)c1OC | > 79 µM (inactive)
59 | CCOc1ncccc1C(=O)Nc1cccc(-c2nc3cccnc3s2)c1 | 3.51 µM
60 | COc1cc(-c2cc(NC(C)=O)c3ncc(-c4ccc(C(C)=O)cc4)n3c2)cc(OC)c1OC | 6.06 µM
61 | COCCNC(=O)COC(=O)c1ccc(OCC(=O)Nc2ccccc2OC)c(OC)c1 | 20.4 µM (inactive)
62 | COc1ccc(OC)c(N(CC(=O)Nc2cccnc2)S(=O)(=O)c2ccc(OC)c(OC)c2)c1 | 16.5 µM (inactive)
63 | COc1ccc(-c2cc3nc(-c4ccccc4)cc(N4CCN(C(C)=O)CC4)n3n2)cc1 | 8.73 µM
64 | Cc1cc(C)cc(OCC(=O)Nc2cccc(-c3nc4ncccc4o3)c2)c1 | > 79 µM (inactive)
65 | COc1ccc(CN(C)C(=O)C(Cc2ccccc2)NC(=O)c2ccccc2)cc1F (stereo not given) | 2.67 µM
